# Test results reported in ChEMBL document CHEMBL4385622, “Discovery of velpatasvir (GS-5816): A potent pan-genotypic HCV NS5A inhibitor in the single-tablet regimens Vosevi® and Epclusa®” (Bioorg Med Chem Lett, 2019).
# What was measured:
# Conditions in all cases: in vivo, read-out: Fabs
# [1] = Fraction absorbed in rat; type: ADME
# [2] = Fraction absorbed in dog; type: ADME, Canis lupus familiaris
# [3] = Fraction absorbed in cynomolgus monkey; type: ADME, Macaca fascicularis
SMILES,Fa [1] [%],Fa [2] [%],Fa [3] [%]
COC(=O)N[C@H](C(=O)N1CCC[C@H]1c1ncc(-c2cc3c4c(c2)COc2cc(-c5cnc([C@@H]6CCCN6C(=O)[C@@H](NC(=O)OC)C(C)C)[nH]5)cc(c2-4)OC3)[nH]1)C(C)C,18,100,
COC(=O)N[C@H](C(=O)N1[C@@H](C)CC[C@H]1c1nc2ccc3cc4c(cc3c2[nH]1)OCc1cc(-c2cnc([C@@H]3C[C@H](C)CN3C(=O)[C@H](NC(=O)OC)c3ccccc3)[nH]2)ccc1-4)C(C)C,4,,
COC[C@H]1C[C@@H](c2ncc(-c3ccc4c(c3)COc3cc5c(ccc6nc([C@@H]7C[C@H](C)CN7C(=O)[C@@H](NC(=O)OC)C(C)C)[nH]c65)cc3-4)[nH]2)N(C(=O)[C@H](NC(=O)OC)c2ccccc2)C1,9,,4
COC(=O)N[C@H](C(=O)N1C[C@@H](C)C[C@H]1c1nc2ccc3cc4c(cc3c2[nH]1)OCc1cc(-c2cnc([C@@H]3C[C@H](C)CN3C(=O)[C@H](NC(=O)OC)c3ccccc3)[nH]2)ccc1-4)C(C)C,4,,
COC(=O)N[C@H](C(=O)N1CCC[C@H]1c1ncc(-c2ccc3c(c2)COc2cc4c(ccc5nc([C@@H]6CCCN6C(=O)[C@H](NC(=O)OC)c6ccccc6)[nH]c54)cc2-3)[nH]1)C(C)C,13,56,16

# The next lines start with the values.
Fa [1] [%],Fa [2] [%],Fa [3] [%],SMILES
11,,,COC[C@H]1C[C@@H](c2nc3ccc4cc5c(cc4c3[nH]2)OCc2cc(-c3cnc([C@@H]4C[C@H](C)CN4C(=O)[C@@H](NC(=O)OC)C(C)C)[nH]3)ccc2-5)N(C(=O)[C@@H](NC(=O)OC)C(C)C)C1
10,,,COC(=O)N[C@H](C(=O)N1CCC[C@H]1c1ncc(-c2ccc3c(c2)COc2cc4c(ccc5nc([C@@H]6C[C@H](C)CN6C(=O)[C@@H](NC(=O)OC)C(C)C)[nH]c54)cc2-3)[nH]1)C(C)C
13,,64,COC[C@H]1C[C@@H](c2nc3ccc4cc5c(cc4c3[nH]2)OCc2cc(-c3cnc([C@@H]4CC[C@H](C)N4C(=O)[C@@H](NC(=O)OC)C(C)C)[nH]3)ccc2-5)N(C(=O)[C@@H](NC(=O)OC)C(C)C)C1
27,100,53,COC(=O)N[C@H](C(=O)N1[C@@H](C)CC[C@H]1c1ncc(-c2ccc3c(c2)COc2cc4c(ccc5nc([C@@H]6CC[C@H](C)N6C(=O)[C@@H](NC(=O)OC)C(C)C)[nH]c54)cc2-3)[nH]1)C(C)C
16,56,,COC[C@H]1C[C@@H](c2nc3ccc4cc5c(cc4c3[nH]2)OCc2cc(-c3cnc([C@@H]4CCCN4C(=O)[C@@H](NC(=O)OC)C(C)C)[nH]3)ccc2-5)N(C(=O)[C@@H](NC(=O)OC)C(C)C)C1
